Measurements: the NIST ThermoML archive (doi:10.1016/j.jct.2012.01.008)

Experiment: xn = mol fraction of the nth substance listed
Settings: Liquid, Vibrating tube method

CCC[N+]1(C)CCCCC1.O=S(=O)([N-]S(=O)(=O)C(F)(F)F)C(F)(F)F + CC(=O)c1ccccc1
mass density [kg/m3]
Settings	100 kPa	10000 kPa	15000 kPa	20000 kPa	25000 kPa	30000 kPa	35000 kPa	40000 kPa	45000 kPa	50000 kPa
298.15 K, x2 = 0.1024	1393.3	1399.9	1402.9	1406	1408.8	1411.6	1414.3	1417.1	1419.8	1422.4
298.15 K, x2 = 0.2007	1376	1382.5	1385.4	1388.5	1391.3	1394.1	1396.8	1399.5	1402.2	1404.8
298.15 K, x2 = 0.3001	1355.5	1361.8	1364.8	1367.9	1370.7	1373.5	1376.2	1379	1381.7	1384.3
298.15 K, x2 = 0.4001	1331.8	1338	1341	1344.1	1346.9	1349.7	1352.4	1355.1	1357.8	1360.4
298.15 K, x2 = 0.5008	1303.8	1309.9	1312.8	1315.8	1318.5	1321.3	1324	1326.6	1329.3	1331.8
298.15 K, x2 = 0.6001	1270.5	1276.6	1279.5	1282.5	1285.2	1287.9	1290.5	1293.2	1295.7	1298.2
298.15 K, x2 = 0.7003	1229.4	1235.5	1238.3	1241.2	1243.9	1246.5	1249.1	1251.7	1254.2	1256.7
298.15 K, x2 = 0.7999	1178	1184	1186.8	1189.7	1192.3	1194.9	1197.5	1200.1	1202.6	1205
298.15 K, x2 = 0.8998	1111.5	1117.3	1120	1122.7	1125.2	1127.8	1130.4	1133	1135.4	1137.8
318.15 K, x2 = 0.1024	1376.7	1383.4	1386.8	1389.8	1392.8	1395.8	1398.8	1401.6	1404.5	1407.1
318.15 K, x2 = 0.2007	1359	1365.7	1369.1	1372.1	1375.1	1378.1	1381.1	1383.9	1386.7	1389.3
318.15 K, x2 = 0.3001	1338.4	1345.1	1348.5	1351.5	1354.5	1357.5	1360.5	1363.3	1366.1	1368.7
318.15 K, x2 = 0.4001	1314.6	1321.3	1324.7	1327.7	1330.7	1333.7	1336.5	1339.3	1342.1	1344.8
318.15 K, x2 = 0.5008	1286.6	1293.1	1296.5	1299.5	1302.4	1305.4	1308.2	1310.9	1313.7	1316.3
318.15 K, x2 = 0.6001	1253.2	1259.8	1263.1	1266.1	1269	1271.9	1274.8	1277.4	1280.2	1282.8
318.15 K, x2 = 0.7003	1212	1218.5	1221.8	1224.7	1227.7	1230.6	1233.4	1236	1238.7	1241.3
318.15 K, x2 = 0.7999	1160.6	1167.1	1170.2	1173.1	1176	1178.8	1181.7	1184.2	1186.9	1189.5
318.15 K, x2 = 0.8998	1093.9	1100.3	1103.4	1106.3	1109.2	1112	1114.9	1117.4	1120.1	1122.6
348.15 K, x2 = 0.1024	1350.8	1357.9	1361.5	1365.1	1368.5	1371.7	1374.9	1377.9	1381	1383.8
348.15 K, x2 = 0.2007	1333	1340.3	1344	1347.5	1350.9	1354.1	1357.4	1360.4	1363.4	1366.2
348.15 K, x2 = 0.3001	1312.4	1319.7	1323.4	1327	1330.4	1333.7	1336.8	1339.9	1342.8	1345.6
348.15 K, x2 = 0.4001	1288.5	1295.8	1299.5	1303	1306.4	1309.6	1312.8	1315.8	1318.8	1321.6
348.15 K, x2 = 0.5008	1260.2	1267.6	1271.2	1274.6	1277.9	1281.2	1284.3	1287.3	1290.3	1293.1
348.15 K, x2 = 0.6001	1226.6	1234.1	1237.7	1241.1	1244.4	1247.7	1250.8	1253.8	1256.8	1259.6
348.15 K, x2 = 0.7003	1185.5	1193	1196.6	1199.9	1203.2	1206.5	1209.6	1212.6	1215.6	1218.4
348.15 K, x2 = 0.7999	1134.2	1141.7	1145.2	1148.6	1151.8	1155.1	1158.2	1161.2	1164.2	1167
348.15 K, x2 = 0.8998	1067.9	1075.4	1078.9	1082.1	1085.4	1088.6	1091.7	1094.7	1097.7	1100.4
